Ends that are not written are not given here.
Columns and labels:
Format in all cases: cell-based
[1] = system: thyrotropin releasing hormone receptor/orexin receptor hetero-dimer/-oligomer (TRHR with OxR1); assay: eBRET: TRHR/Rluc + barr2/Venus + OxR1 as IG3 in HEK293 cells; conditions: TRHR/Rluc + barr2/Venus + OxR1; 10^−6M OxA; FIG. 6
Method: (§1) Briefly, referring to FIGS. 1 to 3, the IGs are provided in the form of the two receptors (TRHR and OxR). One of the two is attached to an RC (IG1-RC1, IG3). A second IG (IG2-RC2) is derived from a molecule that interacts with the receptors upon ligand binding (e.g. beta-arrestin, or a mutant thereof).
(§2) Cells were seeded in 6-well plates at a density of approximately 630,000 cells/well (HEK293FT) or approximately 150,000 cells/well (COS-7) and maintained at 37° C., 5% CO2 in Complete Media (DMEM containing 0.3 mg/ml glutamine, 100 IU/ml penicillin and 100 μg/ml streptomycin (Gibco)) supplemented with 10% fetal calf serum (FCS; Gibco). Transient transfections were carried out 24 h after seeding using GeneJuice (Novagen) or Metafectene (Biontex) according to manufacturer instructions. 24 h post-transfection, cells were washed with PBS, detached using 0.05% trypsin/0.53 mM EDTA, resuspended in HEPES-buffered phenol red free Complete Media containing 5% FCS and added to a poly-L-lysine-coated white microplate (Nunc). 48 h post-transfection, eBRET assays were carried out following pre-incubation of cells with EnduRen™ (Promega) at a final concentration of 30-40 μM, at 37° C., 5% CO2 for 2 h. For original BRET studies, the HEPES-buffered phenol red free Complete Media was replaced with PBS and coelenterazine h (Molecular Probes) added to a final concentration of 5 μM immediately prior to commencing the assay. […] Filtered light emissions were sequentially measured for 3-5 s in each of the ‘donor wavelength window’ (400-475 nm) and ‘acceptor wavelength window’ (>500 nm for EGFP or 520-540 nm for EYFP, Topaz (TYFP) or Venus). The BRET signal observed between interacting proteins is normalized by subtracting the background BRET ratio. […] In this case, data are shown as ‘fluorescence/luminescence’ being the ratio of light emission through the ‘acceptor wavelength window’ over the 400-475 nm emission for a particular cell sample. Unless otherwise stated, BRET signals were measured in 96-well microplates. […]

[2] = system: thyrotropin releasing hormone receptor/orexin receptor hetero-dimer/-oligomer (TRHR with OxR2); assay: eBRET/BRET detection of TRHR-OxR2 association: TRHR/Rluc + tagged beta-arrestin + OxR2 as IG3 in HEK293 cells
Method: as §1
as §2, with “In the following examples, the first calculation will be used, unless the signal is described as the ‘ligand-induced BRET ratio’. […] In” for “In”
Cells not pretreated with antagonist were pretreated with PBS instead for the same amount of time. […]

[3] = molecular target: T1, OxR2 (Homo sapiens, UniProt O43614); assay: BRET/eBRET beta-arrestin 2 recruitment to OxR2/Rluc or OxR2/Rluc8 without IG3 (pcDNA3); conditions: OxR2/Rluc8 + barr2/Venus + pcDNA3; FIG. 18
T1 construct: expressed in transfected cells; host or cells: HEK293 (HEK293FT)
T1 sequence (O43614 1-444): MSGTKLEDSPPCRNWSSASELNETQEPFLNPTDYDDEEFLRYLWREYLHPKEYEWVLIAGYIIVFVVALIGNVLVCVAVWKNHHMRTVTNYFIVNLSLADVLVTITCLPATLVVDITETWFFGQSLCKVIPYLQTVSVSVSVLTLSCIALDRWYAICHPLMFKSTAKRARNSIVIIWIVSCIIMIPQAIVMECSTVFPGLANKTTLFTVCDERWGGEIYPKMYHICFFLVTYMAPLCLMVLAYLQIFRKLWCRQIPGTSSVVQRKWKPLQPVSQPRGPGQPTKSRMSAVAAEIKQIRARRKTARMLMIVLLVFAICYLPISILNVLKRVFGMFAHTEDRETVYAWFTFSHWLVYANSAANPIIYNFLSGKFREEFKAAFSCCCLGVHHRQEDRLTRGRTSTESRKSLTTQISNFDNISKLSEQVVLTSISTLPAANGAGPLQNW
Method: as §1
Cells were seeded in 6-well plates at a density of approximately 630,000 cells/well (HEK293FT) or approximately 150,000 cells/well (COS-7) and maintained at 37° C., 5% CO2 in Complete Media (DMEM containing 0.3 mg/ml glutamine, 100 IU/ml penicillin and 100 μg/ml streptomycin (Gibco)) supplemented with 10% fetal calf serum (FCS; Gibco). […] Filtered light emissions were sequentially measured for 3-5 s in each of the ‘donor wavelength window’ (400-475 nm) and ‘acceptor wavelength window’ (>500 nm for EGFP or 520-540 nm for EYFP, Topaz (TYFP) or Venus). […] In this case, data are shown as ‘fluorescence/luminescence’ being the ratio of light emission through the ‘acceptor wavelength window’ over the 400-475 nm emission for a particular cell sample. Unless otherwise stated, BRET signals were measured in 96-well microplates.
Referring now to FIG. 18, eBRET signals were measured from cells transiently co-expressing OxR2/Rluc8 and barr2/Venus either with HA-TRHR or pcDNA3.

[4] = HEK293, TRHR/Rluc + barr2/Venus + OxR2, ligand 10^−6M, FIG. 4

| Molecule | eBRET signal [1] | eBRET signal [2, 4] | time for eBRET signal to reach its level [2, 4] | time for eBRET signal to reach plateau ([2]; TRHR/Rluc + HA-OxR2 + EGFP/barr1 or EGFP/barr2, FIG. 7) | time for eBRET signal to reach plateau ([2]; TRHR/Rluc + OxR2 + EGFP/barr1, FIG. 8) | time for eBRET signal to reach plateau ([2]; TRHR/Rluc + OxR2 + EGFP/barr1R169E, FIG. 8) [min] | time for eBRET signal to reach plateau ([2]; TRHR/Rluc + OxR2 + EGFP/barr1 or EGFP/barr2, FIG. 5) | eBRET signal ([2]; TRHR/Rluc + barr2/Venus + OxR2, 10^−6M OxA, FIG. 6) | dose-response Hill slope ([2]; TRHR/Rluc + barr2/Venus + OxR2, FIG. 12) | ligand-induced eBRET signal [3] |
| --- | --- | --- | --- | --- | --- | --- | --- | --- | --- | --- |
| OxA: orexin A; known orexin receptor modulator, used as IG3 ligand (modulator) (QPLPDCCRQKTCSCRLYELLHGAGNHAAGILTL; ends and bridges not checked; cysteine pairing not given here; UniProt O43612 34-66, looked up) | small eBRET signal | 0.07-0.08 | up to 30 minutes | more than 10 minutes | more than 10 minutes | ≤ 20 | more than 10 minutes | eBRET signal was observed | greater than 1 |  |
| NC(=O)[C@@H]1CCCN1C(=O)[C@H](Cc1cnc[nH]1)NC(=O)[C@@H]1CCC(=O)N1 [TRH, pGlu-His-Pro-NH2] |  |  |  |  |  |  |  |  |  | No ligand-induced eBRET signal was observed |

— patent US20100234417A1, “THYROTROPIN RELEASING HORMONE RECEPTOR-OREXIN RECEPTOR HETERO-DIMERS/-OLIGOMERS” (DIMERIX BIOSCIENCE PTY LTD., priority 2006, published 2010)
